# Measurements: PubChem BioAssay (NCI)
#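 96-well plates; 48 h exposure; 5 concentrations. Endpoints by linear interpolation between flanking doses. Not reached: highest tested concentration assigned. TGI denotes the concentration required for complete inhibition of growth.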
# Tests used:
# Test in all cases: growth of human tumour cells (NCI), 48 h
# [1] = tested on: ACHN renal
# [2] = tested on: COLO 205 colon
# [3] = tested on: DMS 114 small cell lung
# [4] = tested on: DMS 273 small cell lung
# [5] = tested on: EKVX NSCLC
# [6] = tested on: HCT-116 colon
# [7] = tested on: HOP-62 NSCLC
# [8] = tested on: IGROV1 ovarian
# [9] = tested on: KM12 colon
# [10] = tested on: M19-MEL melanoma
# [11] = tested on: MALME-3M melanoma
# [12] = tested on: MDA-N
# [13] = tested on: MOLT-4 leukemia
# [14] = tested on: OVCAR-5 ovarian
# [15] = tested on: RXF 393 renal
# [16] = tested on: RXF-631 renal
# [17] = tested on: SF-295 CNS
# [18] = tested on: SK-MEL-2 melanoma
# [19] = tested on: SK-MEL-28 melanoma
# [20] = tested on: SK-MEL-5 melanoma
# [21] = tested on: SK-OV-3 ovarian
# [22] = tested on: SNB-19 CNS
# [23] = tested on: SNB-75 CNS
# [24] = tested on: SR leukemia
# [25] = tested on: TK-10 renal
# [26] = tested on: U251 CNS
# [27] = tested on: UACC-257 melanoma
# [28] = tested on: UACC-62 melanoma
# [29] = tested on: UO-31 renal
# [30] = tested on: XF 498 CNS
# [31] = tested on: 786-0 renal
# [32] = tested on: A498 renal
# [33] = tested on: A549 NSCLC
# [34] = tested on: CAKI-1 renal
# [35] = tested on: CCRF-CEM leukemia
# [36] = tested on: DLD-1 colon
# [37] = tested on: HCC-2998 colon
# [38] = tested on: HCT-15 colon
# [39] = tested on: HL-60(TB) leukemia
# [40] = tested on: HOP-18 NSCLC
# [41] = tested on: HOP-92 NSCLC
# [42] = tested on: HT29 colon
# [43] = tested on: K-562 leukemia
# [44] = tested on: KM20L2 colon
# [45] = tested on: LOX IMVI melanoma
# [46] = tested on: LXFL 529 NSCLC
# [47] = tested on: M14 melanoma
# [48] = tested on: NCI-H226 lung
# [49] = tested on: NCI-H23 lung
# [50] = tested on: NCI-H460 lung
# [51] = tested on: OVCAR-3 ovarian
# [52] = tested on: OVCAR-4 ovarian
# [53] = tested on: OVCAR-8 ovarian
# [54] = tested on: RPMI-8226 leukemia
# [55] = tested on: SF-268 CNS
# [56] = tested on: SN12C renal
# [57] = tested on: SW-620 colon
compound,measurement,setting,value
CCN(CC)c1ccc(C(=C2C=CC(=[N+](CC)CC)C=C2)c2ccc(N(CC)CC)cc2)cc1,TGI,[1],348 nM
same,TGI,[2],503 nM
same,TGI,[3],787 nM
same,TGI,[4],1150 nM
same,TGI,[5],1540 nM
same,TGI,[6],1310 nM
same,TGI,[7],1580 nM
same,TGI,[8],1180 nM
same,TGI,[9],1180 nM
same,TGI,[10],1310 nM
same,TGI,[11],588 nM
same,TGI,[12],1160 nM
same,TGI,[13],1780 nM
same,TGI,[14],1060 nM
same,TGI,[15],1040 nM
same,TGI,[16],1180 nM
same,TGI,[17],1110 nM
same,TGI,[18],687 nM
same,TGI,[19],1820 nM
same,TGI,[20],237 nM
same,TGI,[21],624 nM
same,TGI,[22],1790 nM
same,TGI,[23],1440 nM
same,TGI,[24],582 nM
same,TGI,[25],1450 nM
same,TGI,[26],1310 nM
same,TGI,[27],1010 nM
same,TGI,[28],1520 nM
same,TGI,[29],724 nM
same,TGI,[30],81.5 nM
COC(=O)C12CC(C3CC31)C1CC12 (stereo not given),TGI,[31],> 100000 nM
same,TGI,[32],> 100000 nM
same,TGI,[33],> 100000 nM
same,TGI,[1],> 100000 nM
same,TGI,[34],> 100000 nM
same,TGI,[35],> 100000 nM
same,TGI,[2],> 100000 nM
same,TGI,[36],> 100000 nM
same,TGI,[3],> 100000 nM
same,TGI,[4],> 100000 nM
same,TGI,[37],> 100000 nM
same,TGI,[6],> 100000 nM
same,TGI,[38],> 100000 nM
same,TGI,[39],> 100000 nM
same,TGI,[40],> 100000 nM
same,TGI,[7],> 100000 nM
same,TGI,[41],> 100000 nM
same,TGI,[42],> 100000 nM
same,TGI,[8],> 100000 nM
same,TGI,[43],> 100000 nM
same,TGI,[44],> 100000 nM
same,TGI,[45],> 100000 nM
same,TGI,[46],> 100000 nM
same,TGI,[47],> 100000 nM
same,TGI,[10],> 100000 nM
same,TGI,[11],> 100000 nM
same,TGI,[13],> 100000 nM
same,TGI,[48],> 100000 nM
same,TGI,[49],> 100000 nM
same,TGI,[50],> 100000 nM
same,TGI,[51],> 100000 nM
same,TGI,[52],> 100000 nM
same,TGI,[14],> 100000 nM
same,TGI,[53],> 100000 nM
same,TGI,[54],> 100000 nM
same,TGI,[16],> 100000 nM
same,TGI,[55],> 100000 nM
same,TGI,[17],> 100000 nM
same,TGI,[19],> 100000 nM
same,TGI,[20],> 100000 nM
same,TGI,[21],> 100000 nM
same,TGI,[56],> 100000 nM
same,TGI,[22],> 100000 nM
same,TGI,[24],> 100000 nM
same,TGI,[57],> 100000 nM
same,TGI,[25],> 100000 nM
same,TGI,[26],> 100000 nM
same,TGI,[27],> 100000 nM
same,TGI,[28],> 100000 nM
same,TGI,[29],> 100000 nM
